Measurements reported in patent US20250263404A1, “AMINOPYRIDINES AS ACTIVATORS OF PI3 KINASE” (UCL Business Ltd, priority 2021, published 2025).

Tested on: PIP3 levels in A549 cells
Assay: PIP3 measurement by mass spectrometry in A549 cells
Type: cell-based, human
Conditions: 2 min
Method: FIG. 21. a, MEFs were stimulated for the indicated time points with 1938 (5 μM) or for 2 min with PDGF (20 ng/ml) or insulin (100 nM), followed by lipid extraction and PIP3 measurement by mass spectrometry. b, MEFs were stimulated for 2 min with increasing doses of 1938 or PDGF, followed by lipid extraction and PIP3 measurement by mass spectrometry. c, A549 cells were stimulated for 2 min with increasing doses of 1938 or insulin, or 10 ng/ml PDGF, followed by lipid extraction and PIP3 measurement by mass spectrometry. […] These maximal 1938-induced PIP3 levels are below those required to give rise to sufficient PI(3,4)P2 to be detectable by mass spectrometry, a conclusion also supported by the observation that substantial levels of PIP3 induced by lower doses of PDGF (e.g. 0.5 ng/ml) were also not sufficient to give rise to levels of PI(3,4)P2 detectable by mass. […] A strong PIP3 response was also observed with insulin in these cells, with no PIP3 induced by PDGF, in line with the absence of this receptor in epithelial cells, including in A549.

CCN1CCN(c2ccc(Nc3cc(Nc4cccc5c4N(C(C)=O)CC5)ccn3)cc2)CC1 [Example 1938]
concentration at which PIP3 response maxed out: 10 µM
